Each structure is given as a SMILES string. pIC50: −log10 of the molar value. A value given as a limit tells only on which side of the number the result lay.

One experiment deals with MDA-MB-436. The experiment is described as follows: Viability assay, BRCA1 mutant cell line MDA-MB-436. Type of experiment: cell-based. Particulars: Homo sapiens, MDA-MB-436, viability, BRCA1 mutant MDA-MB-436; read-out: MDA-MB-436 rel IC50. An excerpt: (§1) Table 1 also indicates IC50 values in a viability assay for a non-isogenic pair of BRCA1 mutant (column 5-MDA-MB-436) and BRCA1 WT (column 6—HCC1954) cell lines. These values indicate the effect of treatment with compound on cell survival.

The target in the next experiment is USP1-UAF1 (Homo sapiens, UniProt O94782). The experiment is described as follows: Ubiquitin Rhodamine assay of USP1-UAF1 activity. Type of experiment: biochemical. As to the method:
Certain compounds of the disclosure were assessed for USP1-UAF1 activity in a Ubiquitin Rhodamine assay as described in Biology Example 1.

A further experiment concerns monoubiquitinated PCNA. In words: AlphaLISA assay measuring monoubiquitinated PCNA in MDA-MB-436. Type of experiment: cell-based. Particulars: Homo sapiens, MDA-MB-436, monoubiquitinated PCNA, read-out: Alpha Lisa IC50. An excerpt: Table 1 also indicates IC50 values for exemplary compounds in an AlphaLISA assay measuring monoubiquitinated PCNA in a BRCA1 mutant cell line (MDA-MB-436; column 7).
A general note: In Alpha technology, singlet oxygen from a donor bead excites a nearby acceptor bead.

In another experiment the test system is HCC1954. In words: Viability assay, BRCA1 WT cell line HCC1954. Type of experiment: cell-based. Particulars: Homo sapiens, HCC1954, viability, read-out: HCC1954 rel IC50.
Source text: as §1

USP1-UAF1, sequence (O94782 whole entry): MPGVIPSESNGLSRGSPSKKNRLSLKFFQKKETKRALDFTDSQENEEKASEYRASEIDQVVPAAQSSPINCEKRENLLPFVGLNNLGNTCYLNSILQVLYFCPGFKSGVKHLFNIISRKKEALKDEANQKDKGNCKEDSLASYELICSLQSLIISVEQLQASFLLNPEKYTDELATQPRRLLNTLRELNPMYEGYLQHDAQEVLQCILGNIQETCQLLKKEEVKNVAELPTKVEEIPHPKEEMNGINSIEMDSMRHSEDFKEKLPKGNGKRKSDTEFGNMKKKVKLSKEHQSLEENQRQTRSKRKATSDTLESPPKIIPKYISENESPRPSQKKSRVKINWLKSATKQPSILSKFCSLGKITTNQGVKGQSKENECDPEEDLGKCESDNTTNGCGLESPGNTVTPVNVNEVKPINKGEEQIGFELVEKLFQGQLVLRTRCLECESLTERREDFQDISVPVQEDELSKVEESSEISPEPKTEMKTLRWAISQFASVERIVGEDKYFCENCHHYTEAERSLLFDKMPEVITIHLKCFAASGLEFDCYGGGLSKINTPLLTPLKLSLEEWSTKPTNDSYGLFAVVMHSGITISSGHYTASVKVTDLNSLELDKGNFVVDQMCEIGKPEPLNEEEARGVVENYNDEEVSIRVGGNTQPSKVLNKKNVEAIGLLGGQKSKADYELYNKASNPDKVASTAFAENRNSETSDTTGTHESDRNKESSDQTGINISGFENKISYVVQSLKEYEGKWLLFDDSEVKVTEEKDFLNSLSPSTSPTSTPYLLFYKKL
USP1-UAF1, sequence (Q8TAF3 whole entry partner): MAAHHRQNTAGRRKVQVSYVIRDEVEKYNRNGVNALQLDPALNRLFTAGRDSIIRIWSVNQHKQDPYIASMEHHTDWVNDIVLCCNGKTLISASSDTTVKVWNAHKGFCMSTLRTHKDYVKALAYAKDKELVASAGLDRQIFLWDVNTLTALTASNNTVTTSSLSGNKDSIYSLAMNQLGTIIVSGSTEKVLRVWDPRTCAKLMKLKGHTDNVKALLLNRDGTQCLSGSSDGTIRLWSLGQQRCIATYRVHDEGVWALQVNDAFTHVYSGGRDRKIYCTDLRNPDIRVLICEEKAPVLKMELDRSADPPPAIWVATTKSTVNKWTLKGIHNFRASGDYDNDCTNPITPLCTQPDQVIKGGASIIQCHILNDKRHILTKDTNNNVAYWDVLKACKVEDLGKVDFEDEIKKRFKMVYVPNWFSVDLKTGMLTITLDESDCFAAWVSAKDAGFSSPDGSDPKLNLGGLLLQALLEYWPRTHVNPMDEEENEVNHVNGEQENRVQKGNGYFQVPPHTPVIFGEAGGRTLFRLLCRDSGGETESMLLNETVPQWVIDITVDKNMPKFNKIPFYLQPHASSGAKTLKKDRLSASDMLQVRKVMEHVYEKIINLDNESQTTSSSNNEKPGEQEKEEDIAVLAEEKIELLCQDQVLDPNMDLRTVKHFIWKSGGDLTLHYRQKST

A word on the pIC50: it is −log10 of the IC50, conventionally taken in molar units. As for `Cn1cc(C(F)(F)F)nc1-c1ccc(Cn2c(=N)n(C)c3cnc(-c4ccccc4Cl)nc32)cc1` [Example B-8, 2-(2-chlorophenyl)-7-methyl-9-(4-(1-methyl-4-(trifluoromethyl)-1H-imidazol-2-yl)benzyl)-7,9-dihydro-8H-purin-8-imine], the pIC50 in the experiment on MDA-MB-436 is 6.60 to 7.00; against USP1-UAF1, 7.00 to 7.52; with monoubiquitinated PCNA it was 6.60 to 7.00; in the experiment on HCC1954, at most 5.00.

Turning to `CC(C)c1c(F)cccc1-c1ncc2c(n1)n(Cc1ccc(-c3nc(C(F)(F)F)cn3C)cc1)c(=N)n2C` [Example B-9, 2-(3-fluoro-2-isopropylphenyl)-7-methyl-9-(4-(1-methyl-4-(trifluoromethyl)-1H-imidazol-2-yl)benzyl)-7,9-dihydro-8H-purin-8-imine], the pIC50 with MDA-MB-436 was above 7.00; against USP1-UAF1 it was above 7.52; with monoubiquitinated PCNA, above 7.00; with HCC1954, 5.00 to 6.60.

In the case of `CC(C)c1cc(F)ccc1-c1ncc2c(n1)n(Cc1ccc(-c3nc(C(F)(F)F)cn3C)cc1)c(=N)n2C` [Example B-10, 2-(4-fluoro-2-isopropylphenyl)-7-methyl-9-(4-(1-methyl-4-(trifluoromethyl)-1H-imidazol-2-yl)benzyl)-7,9-dihydro-8H-purin-8-imine], the pIC50 is 6.60 to 7.00 in the experiment on MDA-MB-436, above 7.52 against USP1-UAF1, 6.60 to 7.00 in the experiment on monoubiquitinated PCNA and 5.00 to 6.60 with HCC1954.

As to `CC(C)c1ccc(F)cc1-c1ncc2c(n1)n(Cc1ccc(-c3nc(C(F)(F)F)cn3C)cc1)c(=N)n2C` [Example B-11, 2-(5-fluoro-2-isopropylphenyl)-7-methyl-9-(4-(1-methyl-4-(trifluoromethyl)-1H-imidazol-2-yl)benzyl)-7,9-dihydro-8H-purin-8-imine], the pIC50 was 6.60 to 7.00 in the experiment with MDA-MB-436, above 7.52 against USP1-UAF1, above 7.00 in the experiment on monoubiquitinated PCNA and 5.00 to 6.60 in the experiment on HCC1954.

For the molecule `Cn1cc(C(F)(F)F)nc1-c1ccc(Cn2c(=N)n(C)c3cnc(-c4ccc(F)cc4OC(F)F)nc32)cc1` [Example T-001, 2-[2-(difluoromethoxy)-4-fluoro-phenyl]-7-methyl-9-[[4-[1-methyl-4-(trifluoromethyl)imidazol-2-yl]phenyl]methyl]purin-8-imine], the pIC50 with MDA-MB-436 is 5.00 to 6.60; against USP1-UAF1, 7.00 to 7.52; in the experiment on monoubiquitinated PCNA, 5.00 to 6.60; with HCC1954, 5.00 to 6.60.

Turning to `Cc1cccc(-c2ncc3c(n2)n(Cc2ccc(-c4nc(C(F)(F)F)cn4C)cc2)c(=N)n3C)c1C(C)C` [Example T-002, 2-(2-isopropyl-3-methyl-phenyl)-7-methyl-9-[[4-[1-methyl-4-(trifluoromethyl)imidazol-2-yl]phenyl]methyl]purin-8-imine], the pIC50 with MDA-MB-436 was 6.60 to 7.00; at USP1-UAF1, 7.00 to 7.52; in the experiment on monoubiquitinated PCNA, 5.00 to 6.60; in the experiment on HCC1954, 5.00 to 6.60.

For the molecule `CC(C)c1ccccc1-c1ncc2c(n1)n(C1(c3ccc(-c4nc(C(F)(F)F)cn4C)cc3)CC1)c(=N)n2C` [Example T-003, 2-(2-isopropylphenyl)-7-methyl-9-[1-[4-[1-methyl-4-(trifluoromethyl)imidazol-2-yl]phenyl]cyclopropyl]purin-8-imine], the pIC50 in the experiment with MDA-MB-436 is above 7.00; against USP1-UAF1 it was above 7.52; with monoubiquitinated PCNA it was above 7.00; in the experiment with HCC1954 it was 5.00 to 6.60.

Regarding `COc1cc(C(F)(F)F)nn1-c1ccc(Cn2c(=N)n(C)c3cnc(-c4ccccc4C(F)(F)F)nc32)cc1` [Example T-004], the negative logarithm of the IC50 (pIC50) was 5.00 to 6.60 with MDA-MB-436, 7.00 to 7.52 at USP1-UAF1, 6.60 to 7.00 in the experiment on monoubiquitinated PCNA and 5.00 to 6.60 with HCC1954.

On to `COc1nccc(C#N)c1-c1ncc2c(n1)n(Cc1ccc(-c3nc(C(F)(F)F)cn3C)cc1)c(=N)n2C` [Example T-008], for which the pIC50 is 6.60 to 7.00 with MDA-MB-436, 7.00 to 7.52 against USP1-UAF1, 6.60 to 7.00 with monoubiquitinated PCNA and at most 5.00 in the experiment on HCC1954.

Take `Cn1cc(C(F)(F)F)nc1-c1ccc(Cn2c(=N)n(C)c3cnc(-c4cccnc4C4CC4)nc32)cc1` [Example T-009, 2-(2-cyclopropyl-3-pyridyl)-7-methyl-9-[[4-[1-methyl-4-(trifluoromethyl)imidazol-2-yl]phenyl]methyl]purin-8-imine]: the pIC50 is 5.00 to 6.60 with MDA-MB-436, 7.00 to 7.52 at USP1-UAF1, 6.60 to 7.00 with monoubiquitinated PCNA and at most 5.00 with HCC1954.

In the case of `Cn1cc(C(F)(F)F)nc1-c1ccc(Cn2c(=N)n(C)c3cnc(-c4cccc5c4OC(F)(F)O5)nc32)cc1` [Example T-011, 2-(2,2-difluoro-1,3-benzodioxol-4-yl)-7-methyl-9-[[4-[1-methyl-4-(trifluoromethyl)imidazol-2-yl]phenyl]methyl]purin-8-imine], the pIC50 with MDA-MB-436 is 5.00 to 6.60; against USP1-UAF1, 7.00 to 7.52; with monoubiquitinated PCNA, 5.00 to 6.60; in the experiment on HCC1954, 5.00 to 6.60.

In the case of `COc1ncc(F)cc1-c1ncc2c(n1)n(Cc1ccc(-c3nc(C(F)(F)F)cn3C)cc1)c(=N)n2C` [Example T-013], the pIC50 with MDA-MB-436 was 5.00 to 6.60; at USP1-UAF1, 5.00 to 7.00; in the experiment on monoubiquitinated PCNA, 5.00 to 6.60; in the experiment on HCC1954 it was at most 5.00.

Regarding `Cc1cccc(C(C)C)c1-c1ncc2c(n1)n(Cc1ccc(-c3nc(C(F)(F)F)cn3C)cc1)c(=N)n2C` [Example T-015, 2-(2-isopropyl-6-methyl-phenyl)-7-methyl-9-[[4-[1-methyl-4-(trifluoromethyl)imidazol-2-yl]phenyl]methyl]purin-8-imine], the pIC50 with MDA-MB-436 was 6.60 to 7.00; against USP1-UAF1, above 7.52; with monoubiquitinated PCNA it was 6.60 to 7.00; in the experiment with HCC1954, at most 5.00.

For the molecule `COCCn1c(=N)n(Cc2ccc(-c3nc(C(F)(F)F)cn3C)cc2)c2nc(-c3ccccc3C(C)C)ncc21` [Example T-016], the pIC50 in the experiment on MDA-MB-436 was above 7.00; on USP1-UAF1, above 7.52; in the experiment on monoubiquitinated PCNA, above 7.00; in the experiment with HCC1954 it was at most 5.00.

With `Cc1ccc(C(C)C)c(-c2ncc3c(n2)n(Cc2ccc(-c4nc(C(F)(F)F)cn4C)cc2)c(=N)n3C)c1` [Example T-018, 2-(2-isopropyl-5-methyl-phenyl)-7-methyl-9-[[4-[1-methyl-4-(trifluoromethyl)imidazol-2-yl]phenyl]methyl]purin-8-imine], the pIC50 was 5.00 to 6.60 in the experiment with MDA-MB-436, 7.00 to 7.52 against USP1-UAF1, 5.00 to 6.60 with monoubiquitinated PCNA and 5.00 to 6.60 with HCC1954.

For `COc1ncnc(C2CC2)c1-c1ncc2c(n1)n(Cc1ccc(-c3nc(C(F)(F)F)cn3C)cc1)c(=N)n2C` [Example T-019, 2-(4-cyclopropyl-6-methoxy-pyrimidin-5-yl)-7-methyl-9-[[4-[1-methyl-4-(trifluoromethyl)imidazol-2-yl]phenyl]methyl]purin-8-imine], the pIC50 is 6.60 to 7.00 with MDA-MB-436, 5.00 to 7.00 against USP1-UAF1, above 7.00 with monoubiquitinated PCNA and at most 5.00 in the experiment with HCC1954.

In the case of `COc1cc(C)n(-c2ccc(Cn3c(=N)n(C)c4cnc(-c5ccccc5C5CC5)nc43)cc2)n1` [Example T-020], the pIC50 in the experiment with MDA-MB-436 is 5.00 to 6.60; on USP1-UAF1, 5.00 to 7.00; with monoubiquitinated PCNA, 5.00 to 6.60; in the experiment with HCC1954 it was 5.00 to 6.60.

On to `Cn1cc(C(F)(F)F)nc1-c1ccc(Cn2c(=N)n(C)c3cnc(-c4ccccc4OC(F)F)nc32)cc1` [Example T-021, 2-[2-(difluoromethoxy)phenyl]-7-methyl-9-[[4-[1-methyl-4-(trifluoromethyl)imidazol-2-yl]phenyl]methyl]purin-8-imine], for which the pIC50 in the experiment on MDA-MB-436 was 6.60 to 7.00; against USP1-UAF1, 7.00 to 7.52; with monoubiquitinated PCNA, above 7.00; in the experiment on HCC1954, at most 5.00.

Regarding `Cn1cc(C(F)(F)F)nc1-c1ccc(Cn2c(=N)n(C)c3cnc(-c4cccnc4N4CC(F)C4)nc32)cc1` [Example T-023], the pIC50 in the experiment with MDA-MB-436 is 5.00 to 6.60; at USP1-UAF1 it was 5.00 to 7.00; in the experiment on monoubiquitinated PCNA, 5.00 to 6.60; with HCC1954, at most 5.00.

For `Cn1cc(C(F)(F)F)nc1-c1ccc(Cn2c(=N)n(C)c3cnc(-c4cccc(F)c4OC(F)F)nc32)cc1` [Example T-027, 2-[2-(difluoromethoxy)-3-fluoro-phenyl]-7-methyl-9-[[4-[1-methyl-4-(trifluoromethyl)imidazol-2-yl]phenyl]methyl]purin-8-imine], the negative logarithm of the IC50 (pIC50) in the experiment on MDA-MB-436 was 5.00 to 6.60; against USP1-UAF1 it was 7.00 to 7.52; with monoubiquitinated PCNA it was 5.00 to 6.60; in the experiment on HCC1954 it was 5.00 to 6.60.

Take `COc1cc(-c2nc(C(F)(F)F)cn2C)ccc1Cn1c(=N)n(C)c2cnc(-c3ccccc3C(F)(F)F)nc21` [Example T-029]: the pIC50 in the experiment with MDA-MB-436 was 6.60 to 7.00; against USP1-UAF1 it was 5.00 to 7.00; in the experiment with monoubiquitinated PCNA, 6.60 to 7.00; with HCC1954, 5.00 to 6.60.

As for `CC(C)c1ccccc1-c1ncc2c(n1)n(C[C@H]1CC[C@H](c3nc(C(F)(F)F)cn3C)CC1)c(=N)n2C` [Example T-030], the pIC50 with MDA-MB-436 was above 7.00; at USP1-UAF1, 5.00 to 7.00; in the experiment on monoubiquitinated PCNA it was above 7.00; with HCC1954, 5.00 to 6.60.

Consider `CC(C)n1cc(C(F)(F)F)nc1-c1ccc(Cn2c(=N)n(C)c3cnc(-c4cccnc4OCC(F)(F)F)nc32)cc1` [Example T-031], for which the pIC50 with MDA-MB-436 was 5.00 to 6.60; at USP1-UAF1, 5.00 to 7.00; in the experiment with monoubiquitinated PCNA, 5.00 to 6.60; with HCC1954, at most 5.00.

`CCOc1cc(C(F)(F)F)nn1-c1ccc(Cn2c(=N)n(C)c3cnc(-c4ccccc4C(C)C)nc32)cc1` [Example T-032]: the pIC50 is above 7.00 in the experiment on MDA-MB-436, above 7.52 against USP1-UAF1, 6.60 to 7.00 in the experiment with monoubiquitinated PCNA and 5.00 to 6.60 with HCC1954.

The values are drawn from US20240059689A1, “PURINE DERIVATIVES AS ANTICANCER AGENTS” (Tango Therapeutics, Inc., priority 2021, published 2024).
